Experimental data published in PubChem BioAssay (NCI).
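Protocol summary: plate cells (96-well), add compound at 5 concentrations, incubate 48 h, interpolate endpoints linearly. GI50 = concentration required for 50% inhibition of growth. TGI: total growth inhibition.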

Key:
Assay in all cases: inhibition of tumour cell growth, NCI panel, 48 h; in the data active = GI50 below about 0.43 µM; inactive = the rest
SW-620 colon = system: SW-620 colon
T-47D breast = system: T-47D breast
COLO 205 colon = system: COLO 205 colon
OVCAR-3 ovarian = system: OVCAR-3 ovarian
RPMI-8226 leukemia = system: RPMI-8226 leukemia
SF-268 CNS = system: SF-268 CNS
OVCAR-4 ovarian = system: OVCAR-4 ovarian
SNB-75 CNS = system: SNB-75 CNS
NCI-H226 lung = system: NCI-H226 lung
UACC-257 melanoma = system: UACC-257 melanoma
SF-295 CNS = system: SF-295 CNS
K-562 leukemia = system: K-562 leukemia
SNB-19 CNS = system: SNB-19 CNS
HL-60(TB) leukemia = system: HL-60(TB) leukemia
SF-539 CNS = system: SF-539 CNS
NCI-H522 lung = system: NCI-H522 lung
RXF 393 renal = system: RXF 393 renal
HCC-2998 colon = system: HCC-2998 colon
MDA-MB-231 breast = system: MDA-MB-231 breast
BT-549 breast = system: BT-549 breast
MDA-MB-435 = system: MDA-MB-435
DU-145 prostate = system: DU-145 prostate
HT29 colon = system: HT29 colon
NCI-H23 lung = system: NCI-H23 lung
A549 NSCLC = system: A549 NSCLC
SR leukemia = system: SR leukemia
SK-MEL-5 melanoma = system: SK-MEL-5 melanoma
SK-MEL-2 melanoma = system: SK-MEL-2 melanoma
786-0 renal = system: 786-0 renal
LOX IMVI melanoma = system: LOX IMVI melanoma
MDA-N = system: MDA-N
HOP-92 NSCLC = system: HOP-92 NSCLC
HCT-15 colon = system: HCT-15 colon
MALME-3M melanoma = system: MALME-3M melanoma
CAKI-1 renal = system: CAKI-1 renal
A498 renal = system: A498 renal
ACHN renal = system: ACHN renal
EKVX NSCLC = system: EKVX NSCLC
HOP-62 NSCLC = system: HOP-62 NSCLC
PC-3 prostate = system: PC-3 prostate
HS 578T breast = system: HS 578T breast
TK-10 renal = system: TK-10 renal
SK-OV-3 ovarian = system: SK-OV-3 ovarian
MOLT-4 leukemia = system: MOLT-4 leukemia
NCI/ADR-RES ovarian = system: NCI/ADR-RES ovarian
OVCAR-5 ovarian = system: OVCAR-5 ovarian
M14 melanoma = system: M14 melanoma
HCT-116 colon = system: HCT-116 colon
KM12 colon = system: KM12 colon
SN12C renal = system: SN12C renal
IGROV1 ovarian = system: IGROV1 ovarian
UACC-62 melanoma = system: UACC-62 melanoma
MCF7 breast = system: MCF7 breast
U251 CNS = system: U251 CNS
SK-MEL-28 melanoma = system: SK-MEL-28 melanoma
UO-31 renal = system: UO-31 renal
OVCAR-8 ovarian = system: OVCAR-8 ovarian
CCRF-CEM leukemia = system: CCRF-CEM leukemia
NCI-H460 lung = system: NCI-H460 lung

Cn1c(=O)c2[nH]cnc2n(C)c1=O.[CH2-]C(Cc1cccc2cc(C(=O)O)c(=O)oc12)OC.[Hg+2].[OH-] (stereo not drawn)
32.5 µM: TGI (NCI-H522 lung) | TGI (SN12C renal)
41.8 µM: TGI (HOP-62 NSCLC)
31.3 µM: TGI (UACC-62 melanoma)
32 µM: TGI (HT29 colon) | TGI (CAKI-1 renal) | TGI (KM12 colon) | TGI (OVCAR-8 ovarian)
30.5 µM: TGI (HCT-116 colon)
40.5 µM: TGI (MOLT-4 leukemia)
29.9 µM: TGI (HOP-92 NSCLC) | TGI (ACHN renal)
65.1 µM: TGI (RPMI-8226 leukemia)
20.4 µM: TGI (MALME-3M melanoma)
39.2 µM: TGI (HCC-2998 colon)
57.3 µM: TGI (HS 578T breast)
63.5 µM: TGI (T-47D breast)
> 58.5 µM: TGI (SK-OV-3 ovarian)
30.7 µM: TGI (M14 melanoma)
31.5 µM: TGI (SK-MEL-2 melanoma)
30.2 µM: TGI (786-0 renal)
30.3 µM: TGI (LOX IMVI melanoma)
31.8 µM: TGI (UACC-257 melanoma) | TGI (PC-3 prostate)
31.2 µM: TGI (BT-549 breast) | TGI (SK-MEL-5 melanoma)
28.7 µM: TGI (SW-620 colon)
32.8 µM: TGI (OVCAR-3 ovarian)
58.3 µM: TGI (HL-60(TB) leukemia)
31.6 µM: TGI (SNB-19 CNS) | TGI (DU-145 prostate)
inactive: GI50 (SW-620 colon) 10.8 µM | GI50 (T-47D breast) 18.9 µM | GI50 (COLO 205 colon) 17.1 µM | GI50 (OVCAR-3 ovarian) 17.3 µM | GI50 (RPMI-8226 leukemia) 18.2 µM | GI50 (SF-268 CNS) 16.9 µM | GI50 (OVCAR-4 ovarian) 17.9 µM | GI50 (SNB-75 CNS) 17.7 µM | GI50 (NCI-H226 lung) 21.4 µM | GI50 (UACC-257 melanoma) 17.9 µM | GI50 (SF-295 CNS) 19.4 µM | GI50 (K-562 leukemia) 18.9 µM | GI50 (SNB-19 CNS) 17.7 µM | GI50 (HL-60(TB) leukemia) 30.5 µM | GI50 (SF-539 CNS) 14.6 µM | GI50 (NCI-H522 lung) 15.1 µM | GI50 (RXF 393 renal) 19.3 µM | GI50 (HCC-2998 colon) 23 µM | GI50 (MDA-MB-231 breast) 20.9 µM | GI50 (BT-549 breast) 17.3 µM | GI50 (MDA-MB-435) 16.9 µM | GI50 (DU-145 prostate) 17 µM | GI50 (HT29 colon) 17.1 µM | GI50 (NCI-H23 lung) 16.8 µM | GI50 (A549 NSCLC) 19 µM | GI50 (SR leukemia) 20.8 µM | GI50 (SK-MEL-5 melanoma) 17.4 µM | GI50 (SK-MEL-2 melanoma) 17.4 µM | GI50 (786-0 renal) 16.6 µM | GI50 (LOX IMVI melanoma) 16 µM | GI50 (MDA-N) 17.2 µM | GI50 (HOP-92 NSCLC) 15.6 µM | GI50 (HCT-15 colon) 16.6 µM | GI50 (MALME-3M melanoma) 8.67 µM | GI50 (CAKI-1 renal) 18 µM | GI50 (A498 renal) 18.7 µM | GI50 (ACHN renal) 16.3 µM | GI50 (EKVX NSCLC) 20.7 µM | GI50 (HOP-62 NSCLC) 19.2 µM | GI50 (PC-3 prostate) 18 µM | GI50 (HS 578T breast) 22.2 µM | GI50 (TK-10 renal) 19.3 µM | GI50 (SK-OV-3 ovarian) > 44 µM | GI50 (MOLT-4 leukemia) 8.81 µM | GI50 (NCI/ADR-RES ovarian) 19.8 µM | GI50 (OVCAR-5 ovarian) 18.6 µM | GI50 (M14 melanoma) 16.9 µM | GI50 (HCT-116 colon) 16.8 µM | GI50 (KM12 colon) 17.3 µM | GI50 (SN12C renal) 18 µM | GI50 (IGROV1 ovarian) 17.3 µM | GI50 (UACC-62 melanoma) 17.3 µM | GI50 (MCF7 breast) 16.6 µM | GI50 (U251 CNS) 16.3 µM | GI50 (SK-MEL-28 melanoma) 19.1 µM | GI50 (UO-31 renal) 16.1 µM | GI50 (OVCAR-8 ovarian) 18 µM | GI50 (CCRF-CEM leukemia) 3.21 µM
77.4 µM: TGI (K-562 leukemia)
35.8 µM: TGI (OVCAR-4 ovarian)
18 µM: TGI (CCRF-CEM leukemia)
35.6 µM: TGI (MDA-MB-231 breast)
30.9 µM: TGI (COLO 205 colon) | TGI (NCI-H23 lung) | TGI (MDA-N) | TGI (HCT-15 colon)
29.8 µM: TGI (SF-539 CNS) | TGI (U251 CNS) | TGI (UO-31 renal)
38.1 µM: TGI (NCI/ADR-RES ovarian)
33 µM: TGI (A498 renal) | TGI (MCF7 breast)
33.4 µM: TGI (TK-10 renal)
35.9 µM: TGI (RXF 393 renal)
53.8 µM: TGI (SR leukemia)
37.4 µM: TGI (A549 NSCLC) | TGI (EKVX NSCLC)
30.6 µM: TGI (SF-268 CNS) | TGI (MDA-MB-435)
33.5 µM: TGI (SK-MEL-28 melanoma)
38 µM: TGI (SF-295 CNS)
40.7 µM: TGI (NCI-H226 lung)
32.7 µM: TGI (SNB-75 CNS) | TGI (OVCAR-5 ovarian)
31.4 µM: TGI (IGROV1 ovarian)

Cc1ccc2nnc(NS(=O)(=O)c3cc(C)c(Cl)cc3S)n2n1
> 100 µM: TGI (SW-620 colon) | TGI (T-47D breast) | TGI (COLO 205 colon) | TGI (OVCAR-3 ovarian) | TGI (RPMI-8226 leukemia) | TGI (SF-268 CNS) | TGI (OVCAR-4 ovarian) | TGI (SNB-75 CNS) | TGI (NCI-H226 lung) | TGI (UACC-257 melanoma) | TGI (K-562 leukemia) | TGI (SNB-19 CNS) | TGI (HL-60(TB) leukemia) | TGI (SF-539 CNS) | TGI (NCI-H522 lung) | TGI (RXF 393 renal) | TGI (HCC-2998 colon) | TGI (NCI-H460 lung) | TGI (MDA-MB-231 breast) | TGI (BT-549 breast) | TGI (MDA-MB-435) | TGI (DU-145 prostate) | TGI (HT29 colon) | TGI (A549 NSCLC) | TGI (SR leukemia) | TGI (SK-MEL-5 melanoma) | TGI (SK-MEL-2 melanoma) | TGI (786-0 renal) | TGI (LOX IMVI melanoma) | TGI (MDA-N) | TGI (HOP-92 NSCLC) | TGI (HCT-15 colon) | TGI (MALME-3M melanoma) | TGI (CAKI-1 renal) | TGI (A498 renal) | TGI (ACHN renal) | TGI (EKVX NSCLC) | TGI (HOP-62 NSCLC) | TGI (PC-3 prostate) | TGI (HS 578T breast) | TGI (TK-10 renal) | TGI (SK-OV-3 ovarian) | TGI (MOLT-4 leukemia) | TGI (NCI/ADR-RES ovarian) | TGI (OVCAR-5 ovarian) | TGI (M14 melanoma) | TGI (HCT-116 colon) | TGI (KM12 colon) | TGI (SN12C renal) | TGI (IGROV1 ovarian) | TGI (UACC-62 melanoma) | TGI (MCF7 breast) | TGI (U251 CNS) | TGI (SK-MEL-28 melanoma) | TGI (UO-31 renal) | TGI (OVCAR-8 ovarian) | TGI (CCRF-CEM leukemia)
